Data from patent publication EP4775582A1, “MACROCYCLIC COMPOUND AND ANTIBODY-DRUG CONJUGATE THEREOF” (Genfleet Therapeutics (Shanghai) Inc., priority 2023, dated 2025).
Where two headings read alike, the source gives them in different places.

Key:
Format in all cases: cell-based, human
AsPC-1 cells = test: 3D cell proliferation assay (CellTiter Glo-3D), AsPC-1
Procedure: (§1) The cells were digested with trypsin (containing EDTA), collected in their respective low-serum complete media containing 2% FBS (for MIA Paca-2 cell culture: DMEM + 2% FBS + 0.5% Horse serum + 1% PS), and counted. After the cell density was adjusted as required, 200 MIA PaCa-2 cells, 800 AsPC-1 cells, 800 NCI-H441 cells, or 400 NCI-H1975 cells per well were seeded into a 384-well cell culture plate, with the volume of the medium in each well being 45 µL. The cell culture plate was incubated in an incubator at 37 °C with 5% CO2 overnight. […] On the day after cell seeding, 5 µL of the 10× compound stock solution was added to each cell culture well. […] In addition to the compound-treated wells described above, cell-containing DMSO control wells (with 5 µL of the complete medium containing 1% DMSO added to each well) and cell-free medium control wells (containing 50 µL of the complete medium with 2% FBS) were also set. The culture plate was incubated in an incubator at 37 °C with 5% CO2 for another 5 days, and then 30 µL of CellTiter-Glo working solution was added to each well. The mixture was well mixed, incubated for 30 min, left to stand at room temperature for 30 min, and then transferred to a white-bottomed, opaque 384-well assay plate at 40 µL/well. […] Using an XLfit software, the IR (%) values were plotted against the logarithm of the compound concentrations, and the dose-response curves were fitted using the four-parameter method to calculate the IC50 values.

H441 p-ERK = test: Cell p-ERK assay (HTRF), NCI-H441 cells; settings: NCI-H441 cells (KRAS G12V), 3 h incubation
Procedure: (§2) The cells were digested with trypsin (containing EDTA), collected in their corresponding complete media, and counted. The density of the cell suspensions was adjusted with their corresponding complete media, and 10000 AsPC-1 cells or 20000 NCI-H441 cells per well were seeded into a 96-well cell culture plate, with the volume of the medium in each well being 80 µL. The cell culture plate was incubated in an incubator at 37 °C with 5% CO2 overnight. […] On the day after cell seeding, 20 µL of the 5× compound stock solution was added to each cell culture well. […] In addition to the compound-treated wells described above, cell-containing DMSO control wells were also set. A complete medium containing 0.5% DMSO was added at 20 µL/well. After the mixture was well mixed, the culture plate was incubated in the incubator at 37 °C with 5% CO2 for another 3 h. The medium was then removed from the culture wells, and 50 µL of cell lysis buffer (from Advance ERK phospho-T202/Y204 kit) was added to each well. The mixture was well mixed and incubated for 30 min. Then, 16 µL of the mixture was transferred to a white-bottomed, opaque 96-well assay plate, and separately, 16 µL of cell lysis buffer was added to additional wells (serving as blank wells) in the assay plate. After the transfer was completed, 4 µL of p-ERK HTRF antibody mixture (from Advance ERK phospho-T202/Y204 kit) was added to each well of the assay plate, followed by a 4-hour incubation. […] Using an XLfit software, the IR (%) values were plotted against the logarithm of the compound concentrations, and the dose-response curves were fitted using the four-parameter method to calculate the IC50 values.

AsPC-1 p-ERK = test: Cell p-ERK assay (HTRF), AsPC-1 cells
Procedure: as §2

NCI-H441 cells = test: 3D cell proliferation assay (CellTiter Glo-3D), NCI-H441; settings: NCI-H441 cells (KRAS G12V), 2% FBS, 5 days, read-out: H441 AP IC50
Procedure: as §1

[1] = Homo sapiens, ASPC1, 120 h, read-out: AsPC-1 AP IC50(nM)
[2] = Homo sapiens, ASPC1, 3 h, read-out: AsPC-1 p-ERK IC50(nM)

| Compound | IC50 (AsPC-1 cells; [1]) | IC50 (H441 p-ERK; Homo sapiens) | IC50 (AsPC-1 p-ERK; [2]) | IC50 (NCI-H441 cells; Homo sapiens, 120 h) | IC50 (AsPC-1 cells; AsPC-1 cells (KRAS G12D), 3D, 2% FBS, 5 days, read-out: AsPC-1 AP IC50) | IC50 (H441 p-ERK) | IC50 (AsPC-1 p-ERK; AsPC-1 cells (KRAS G12D), 3 h incubation, read-out: AsPC-1 p-ERK IC50) | IC50 (NCI-H441 cells) | IC50 (AsPC-1 cells; Homo sapiens, ASPC1, 120 h, AsPC-1 cells (KRAS G12D), 3D, 2% FBS, 5 days, read-out: AsPC-1 AP IC50) | IC50 (AsPC-1 p-ERK; Homo sapiens, ASPC1, AsPC-1 cells (KRAS G12D), 3 h incubation, read-out: AsPC-1 p-ERK IC50) |
| --- | --- | --- | --- | --- | --- | --- | --- | --- | --- | --- |
| CCn1c(-c2cc(C#CCN3CCS(=O)(=O)CC3)cnc2[C@H](C)OC)c2c3cc(ccc31)-c1csc(n1)C[C@H](Nc1n[nH]c3cc(C)ccc13)C(=O)N1CCC[C@H](N1)C(=O)OCC(C)(C)C2 (atropisomer, axis not shown; (Ra)) [Compound Z171, (6^3S,4S,Z)-(Ra)-1^2-(5-(3-(1,1-dioxidothiomorpholino)prop-1-yn-1-yl)-2-((S)-1-methoxyethyl)pyridin-3-yl)-1^1-ethyl-10,10-dimethyl-4-((6-methyl-1H-indazol-3-yl)amino)-6^1,6^2,6^3,6^4,6^5,6^6-hexahydro-1^1H-8-oxa-2(4,2)-thiazola-1(5,3)-indola-6(1,3)-pyridazinacycloundecaphane-5,7-dione] | 1.36 nM | 0.53 nM | 0.97 nM | 2.78 nM |  |  |  |  |  |  |
| CCn1c(-c2cc(C#CCN3CCC(C(=O)NCCO)CC3)cnc2[C@H](C)OC)c2c3cc(ccc31)-c1csc(n1)C[C@H](NC(=O)[C@H]1[C@H](C)[C@@H]1C)C(=O)N1CCC[C@H](N1)C(=O)OCC(C)(C)C2 (atropisomer, axis not shown; (Ra)) [Compound Z12] |  | 0.15 nM |  | 0.21 nM |  |  |  |  | 0.44 nM | 0.36 nM |
| CCn1c(-c2cc(C#CCN3CCS(=O)(=O)CC3)cnc2[C@H](C)OC)c2c3cc(ccc31)-c1csc(n1)C[C@H](NC(=O)[C@@H](NC)C1CCC1)C(=O)N1CCC[C@H](N1)C(=O)OCC(C)(C)C2 (atropisomer, axis not shown; (Ra)) [Compound Z17, (2S)-2-methylamino-2-cyclobutyl-N-((6^3S,4S,Z)-(Ra)-1^2-(5-(3-(1,1-dioxidothiomorpholino)prop-1-yn-1-yl)-2-((S)-1-methoxyethyl)pyridin-3-yl)-1^1-ethyl-10,10-dimethyl-5,7-dioxo-6^1,6^2,6^3,6^4,6^5,6^6-hexahydro-1^1H-8-oxa-2(4,2)-thiazola-1(5,3)-indola-6(1,3)-pyridazinacycloundecaphane-4-yl)acetamide] | 0.46 nM | 0.22 nM | 0.26 nM | 0.35 nM |  |  |  |  |  |  |

More lines, main results first:

| IC50 (AsPC-1 cells; [1]) | IC50 (H441 p-ERK; Homo sapiens) | IC50 (AsPC-1 p-ERK; [2]) | IC50 (NCI-H441 cells; Homo sapiens, 120 h) | IC50 (AsPC-1 cells; AsPC-1 cells (KRAS G12D), 3D, 2% FBS, 5 days, read-out: AsPC-1 AP IC50) | IC50 (H441 p-ERK) | IC50 (AsPC-1 p-ERK; AsPC-1 cells (KRAS G12D), 3 h incubation, read-out: AsPC-1 p-ERK IC50) | IC50 (NCI-H441 cells) | Compound | IC50 (AsPC-1 cells; Homo sapiens, ASPC1, 120 h, AsPC-1 cells (KRAS G12D), 3D, 2% FBS, 5 days, read-out: AsPC-1 AP IC50) | IC50 (AsPC-1 p-ERK; Homo sapiens, ASPC1, AsPC-1 cells (KRAS G12D), 3 h incubation, read-out: AsPC-1 p-ERK IC50) |
| --- | --- | --- | --- | --- | --- | --- | --- | --- | --- | --- |
| 0.42 nM | 0.18 nM | 0.27 nM | 0.28 nM |  |  |  |  | CCn1c(-c2cc(C#CCN3CCC(N)(C#N)CC3)cnc2[C@H](C)OC)c2c3cc(ccc31)-c1csc(n1)C[C@H](NC(=O)[C@H]1[C@@H]3COC[C@@H]31)C(=O)N1CCC[C@H](N1)C(=O)OCC(C)(C)C2 (atropisomer, axis not shown; (Ra)) [Compound Z51, (1R,5S,6r)-N-((6^3S,4S,Z)-(Ra)-1^2-(5-(3-(4-amino-4-cyanopiperidin-1-yl)prop-1-yn-1-yl)-2-((S)-1-methoxyethyl)-pyridin-3-yl)-1^1-ethyl-10,10-dimethyl-5,7-dioxo-6^1,6^2,6^3,6^4,6^5,6^6-hexahydro-11H-8-oxa-2(4,2)-thiazola-1(5,3)-indola-6(1,3)-pyridazinacycloundecaphane-4-yl)-3-oxabicyclo[3.1.0]hexane-6-carboxamide] |  |  |
| 0.07 nM | 0.15 nM | 0.07 nM | 0.11 nM |  |  |  |  | CCn1c(-c2cc(C#CCN3CCC(C#N)(CO)CC3)cnc2[C@H](C)OC)c2c3cc(ccc31)-c1csc(n1)C[C@H](NC(=O)[C@H]1[C@@H]3COC[C@@H]31)C(=O)N1CCC[C@H](N1)C(=O)OCC(C)(C)C2 (atropisomer, axis not shown; (Ra)) [Compound Z30, (1R,5S,6r)-N-((6^3S,4S,Z)-(Ra)-1^2-(5-(3-(4-cyano-4-(hydroxymethyl)piperidin-1-yl)prop-1-yn-1-yl)-2-((S)-1-methoxyethyl)pyridin-3-yl)-11-ethyl-10,10-dimethyl-5,7-dioxo-6^1,6^2,6^3,6^4,6^5,6^6-hexahydro-1^1H-8-oxa-2(4,2)-thiazola-1(5,3)-indola-6(1,3)-pyridazinacycloundecaphane-4-yl)-3-oxabicyclo[3.1.0]hexane-6-carboxamide] |  |  |
| 0.52 nM | 0.5 nM | 0.51 nM | 0.32 nM |  |  |  |  | CCn1c(-c2cc(C#CCN3CCS(=O)(=O)CC3)cnc2[C@H](C)OC)c2c3cc(ccc31)-c1csc(n1)C[C@H](NC(=O)[C@@H]1[C@@H](C)[C@H]1CO)C(=O)N1CCC[C@H](N1)C(=O)OCC(C)(C)C2 (atropisomer, axis not shown; (Ra)) [Compound Z7-1, (1R,2R,3S)-N-((6^3S,4S,Z)-(Ra)-1^2-(5-(3-(1,1-dioxidothiomorpholino)prop-1-yn-1-yl)-2-((S)-1-methoxyethyl)pyridin-3-yl)-1^1-ethyl-10,10-dimethyl-5,7-dioxo-6^1,6^2,6^3,6^4,6^5,6^6-hexahydro-1^1H-8-oxa-2(4,2)-thiazola-1(5,3)-indola-6(1,3)-pyridazinacycloundecaphane-4-yl)-2-(hydroxymethyl)-3-methylcyclopropane-1-carboxamide] |  |  |
|  |  |  |  | 0.18 nM | 0.72 nM | 0.59 nM | 0.28 nM | CO[C@@H](C)c1ncc(C#CCN2CCS(=O)(=O)CC2)cc1-c1c2c3cc(ccc3n1CC(C)O)-c1csc(n1)C[C@H](NC(=O)[C@H]1[C@H](C)[C@@H]1C)C(=O)N1CCC[C@H](N1)C(=O)OCC(C)(C)C2 (atropisomer, axis not shown; (Ra)) [Compound Z3, (1r,2R,3S)-N-((6^3S,4S,Z)-(Ra)-1^2-(5-(3-(1,1-dioxidothiomorpholino)prop-1-yn-1-yl)-2-((S)-1-methoxyethyl)pyridin-3-yl)-1^1-(2-hydroxypropyl)-10,10-dimethyl-5,7-dioxo-6,6',6',6^46^5,6^6-hexahydro-1^1H-8-oxa-2(4,2)-thiazola-1(5,3)-indola-6(1,3)-pyridazinacycloundecaphane-4-yl)-2,3-dimethylcyclopropane-1-carboxamide] |  |  |
| 0.37 nM | 0.48 nM | 0.42 nM | 0.4 nM |  |  |  |  | COCCn1c(-c2cc(C#CCN3CCC(C#N)(CO)CC3)cnc2[C@H](C)OC)c2c3cc(ccc31)-c1csc(n1)C[C@H](NC(=O)[C@H]1[C@@H]3COC[C@@H]31)C(=O)N1CCC[C@H](N1)C(=O)OCC(C)(C)C2 (atropisomer, axis not shown) [Compound Z28, (1R,5S,6r)-N-((6^3S,4S,Z)-1^2-(5-(3-(4-cyano-4-hydroxymethylpiperidin-1-yl)prop-1-yn-1-yl)-2-((S)-1-methoxyethyl)pyridin-3-yl)-1^1-(methoxyethyl)-10,10-dimethyl-5,7-dioxo-6^1,6^2,6^3,6^4,6^5,6^6-hexahydro-1^1H-8-oxa-2(4,2)-thiazola-1(5,3)-indola-6(1,3)-pyridazinacycloundecaphane-4-yl)-3-oxabicyclo[3.1.0]hexane-6-carboxamide] |  |  |
